# Assays:
# [1] = Stability studies under relatively harsh conditions (40° C., 40° C./75% RH, 60° C., 60° C./75% RH) on crystal forms I and II; format: physicochemical; details: for crystal form stability (XRPD pattern): 15 days
# [2] = Accelerated stability test (40° C./75% RH) of crystal form I; format: physicochemical; details: for Moisture (KF, w/w %) / Related substances (w/w %): Total impurities / Chiral purity (%) / Content (HPLC, w/w %): 40° C. ± 2° C./75% RH ± 5% RH; for Chiral purity (%): S-enantiomer; for Content (HPLC, w/w %): deducting residual solvent(s) and moisture
# [3] = Approximate solubility test on crystal forms of hydrochloride salt of nepicastat at room temperature; format: physicochemical; details: thermodynamic from solid, room temperature
# [4] = Long-term stability test (25° C./60% RH) of crystal form I; format: physicochemical; details: for Moisture (KF, w/w %) / Related substances (w/w %): Total impurities / Chiral purity (%) / Content (HPLC, w/w %): 25° C. ± 2° C./60% RH ± 5% RH; for Chiral purity (%): S-enantiomer; for Content (HPLC, w/w %): deducting residual solvent(s) and moisture
# [5] = Bioavailability test, intravenous and oral administration to mice; details: mouse, in vivo, IV 15 mg/kg, PO 30 mg/kg
# Description: The crystal forms I and II of hydrochloride salt of nepicastat and the crystal forms of other acid addition salts of nepicastat in Table 31 were taken, and administered intravenously and orally to mice respectively, wherein: • the formulation for intravenous (IV) administration was: 5% (v/v) DMSO+10% (v/v) Solutol HS 15+85% (v/v) physiological saline; • the formulation for oral (PO) administration was: 0.5% (v/v) MC4000 aqueous solution (MC: methylcellulose).
# The specific administration was as follows: • Experiment: three mice were subjected to the test in parallel for each formulation; • Body weight: about 30 g • Administration route: IV; PO • Dose administered: IV-15 mg/kg; PO-30 mg/kg; • Before administration: fasting for 12 hours before administration, and allowing mice to drink water; • After administration: allowing mice to drink water, and feeding within 2 hours after administration; • Blood collecting site: the vein at a hind leg • Blood collecting times: IV—0.083, 0.25, 0.5, 1, 2, 4, 6, 8, 24 h; • PO—0.25, 0.5, 1, 2, 4, 6, 8, 24 h.
# Due to very close solubilities of the crystal forms I and II of hydrochloride salt of nepicastat in water, it was found in the experiment that both of them obtained clear solutions upon preparing the administration samples.
# [6] = Dynamic vapor sorption (DVS) hygroscopicity; format: physicochemical
# Experimental: DVS curves are acquired on DVS Intrinsic from SMS (Surface Measurement Systems). • Testing temperature: 25° C. • Sample amount: 10-20 mg • dm/dt: 0.002%/min; • RH range: 0% RH-95% RH-0% RH • RH gradient: 10%
smiles,measurement,setting,value
"Cl.NCc1c[nH]c(=S)n1[C@H]1CCc2c(F)cc(F)cc2C1.O [crystal form I of hydrochloride salt, (S)-5-aminomethyl-1-(5,7-difluoro-1,2,3,4-tetrahydronaphthalen-2-yl)-1,3-dihydroimidazole-2-thione hydrochloride monohydrate]",crystal form stability (XRPD pattern),[1]; 60° C.,stable
same,crystal form stability (XRPD pattern),[1]; 60° C./75% RH,stable
same,impurity produced due to degradation,[1]; solid left at 60° C. for 15 days,no significant impurity to produce due to degradation
same,impurity produced due to degradation,[1]; solid left at 60° C./75% RH for 15 days,no significant impurity to produce due to degradation
same,"Moisture (KF, w/w %)",[2]; 1 months,5.8 w/w %
same,Related substances (w/w %): Total impurities,[2]; 1 months,not detected
same,Chiral purity (%),[2]; 1 months,99.8%
same,"Content (HPLC, w/w %)",[2]; 1 months,100.4 w/w %
same,"Moisture (KF, w/w %)",[2]; 2 months,5.7 w/w %
same,Related substances (w/w %): Total impurities,[2]; 2 months,not detected
same,Chiral purity (%),[2]; 2 months,99.8%
same,"Content (HPLC, w/w %)",[2]; 2 months,99.6 w/w %
same,"Moisture (KF, w/w %)",[2]; 3 months,5.7 w/w %
same,Related substances (w/w %): Total impurities,[2]; 3 months,not detected
same,Chiral purity (%),[2]; 3 months,99.8%
same,"Content (HPLC, w/w %)",[2]; 3 months,100.4 w/w %
same,"Moisture (KF, w/w %)",[2]; 6 months,5.8 w/w %
same,Related substances (w/w %): Total impurities,[2]; 6 months,not detected
same,Chiral purity (%),[2]; 6 months,99.8%
same,"Content (HPLC, w/w %)",[2]; 6 months,100.1 w/w %
same,"Moisture (KF, w/w %)",[2]; Initial,5.9 w/w %
same,Related substances (w/w %): Total impurities,[2]; Initial,not detected
same,Chiral purity (%),[2]; Initial,99.8%
same,"Content (HPLC, w/w %)",[2]; Initial,100.3 w/w %
same,accelerated stability,"[2]; 40° C./75% RH, double-layer polyethylene bag",no significant change in the detection results
same,solubility,"[3]; aqueous with cosolvent or surfactant or cyclodextrin, solvent 15% Isopropanol",20000 to 27000 µg/mL
same,solubility,"[3]; aqueous with cosolvent or surfactant or cyclodextrin, solvent 30% Methanol",21000 to 42000 µg/mL
same,solubility,"[3]; aqueous with cosolvent or surfactant or cyclodextrin, solvent 50% Acetonitrile",80000 to 100000 µg/mL
same,solubility,"[3]; aqueous with cosolvent or surfactant or cyclodextrin, solvent 50% Ethanol",20000 to 27000 µg/mL
same,solubility,"[3]; aqueous with cosolvent or surfactant or cyclodextrin, solvent 50% Isopropanol",40000 to 80000 µg/mL
same,solubility,"[3]; aqueous with cosolvent or surfactant or cyclodextrin, solvent 50% Tetrahydrofuran",100000 to 130000 µg/mL
same,solubility,"[3]; organic solvent or mixture, solvent 1,4-Dioxane",< 1000 µg/mL
same,solubility,"[3]; organic solvent or mixture, solvent 2-Butanone",< 1000 µg/mL
same,solubility,"[3]; organic solvent or mixture, solvent 2-Methyltetrahydrofuran",< 1000 µg/mL
same,solubility,"[3]; organic solvent or mixture, solvent Acetone",< 1000 µg/mL
same,solubility,"[3]; organic solvent or mixture, solvent Acetonitrile",40 µg/mL
same,solubility,"[3]; organic solvent or mixture, solvent Chloroform",380 µg/mL
same,solubility,"[3]; organic solvent or mixture, solvent Dichloromethane",< 10 µg/mL
same,solubility,"[3]; organic solvent or mixture, solvent Ethanol",6500 µg/mL
same,solubility,"[3]; organic solvent or mixture, solvent Ethyl acetate",10 µg/mL
same,solubility,"[3]; organic solvent or mixture, solvent Isopropanol",6000 µg/mL
same,solubility,"[3]; organic solvent or mixture, solvent Methanol",33000 µg/mL
same,solubility,"[3]; organic solvent or mixture, solvent Methyl tert-butyl ether",< 1000 µg/mL
same,solubility,"[3]; organic solvent or mixture, solvent N-hexane",< 10 µg/mL
same,solubility,"[3]; organic solvent or mixture, solvent Propanol",11700 µg/mL
same,solubility,"[3]; organic solvent or mixture, solvent Propylene carbonate",140 µg/mL
same,solubility,"[3]; organic solvent or mixture, solvent Tetrahydrofuran",90 µg/mL
same,solubility,[3]; solvent Purified water,7400 µg/mL
same,"Moisture (KF, w/w %)",[4]; 3 months,5.7 w/w %
same,Related substances (w/w %): Total impurities,[4]; 3 months,not detected
same,Chiral purity (%),[4]; 3 months,99.8%
same,"Content (HPLC, w/w %)",[4]; 3 months,100.8 w/w %
same,"Moisture (KF, w/w %)",[4]; 6 months,6.0 w/w %
same,Related substances (w/w %): Total impurities,[4]; 6 months,not detected
same,Chiral purity (%),[4]; 6 months,99.8%
same,"Content (HPLC, w/w %)",[4]; 6 months,100.3 w/w %
same,"Moisture (KF, w/w %)",[4]; 9 months,6.3 w/w %
same,Related substances (w/w %): Total impurities,[4]; 9 months,not detected
same,Chiral purity (%),[4]; 9 months,99.8%
same,"Content (HPLC, w/w %)",[4]; 9 months,100.5 w/w %
same,"Moisture (KF, w/w %)",[4]; 12 months,6.2 w/w %
same,Related substances (w/w %): Total impurities,[4]; 12 months,not detected
same,Chiral purity (%),[4]; 12 months,99.8%
same,"Content (HPLC, w/w %)",[4]; 12 months,100.0 w/w %
same,"Moisture (KF, w/w %)",[4]; Initial,5.9 w/w %
same,Related substances (w/w %): Total impurities,[4]; Initial,not detected
same,Chiral purity (%),[4]; Initial,99.8%
same,"Content (HPLC, w/w %)",[4]; Initial,100.3 w/w %
same,long-term stability,"[4]; 25° C./60% RH, double-layer polyethylene bag",no significant change in the detection results
same,bioavailability,[5],> 70%
same,hygroscopicity of the sample,"[6]; DVS, 0% RH to 80% RH",slight hygroscopicity
same,weight gain by hygroscopicity,"[6]; DVS, from 0% RH to 80% RH, 25° C.",about 1.036%
same,crystal form before and after the DVS test,[6]; XRPD before and after DVS,remained unchanged

# — patent US20260062388A1, “POLYMORPHIC FORM OF NEPICASTAT ACID ADDITION SALT, PREPARATION METHOD THEREFOR AND USE THEREOF” (Jiangsu Yahong Meditech Co., Ltd., priority 2022, published 2026)
